Measurements: ChEMBL document CHEMBL1201862, “PubChem BioAssay data set” (2004)
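These data come from cells grown in 96-well plates and exposed to compound for 48 hours at five concentrations. At the GI50, growth is halved.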 Active and inactive are the calls of the source. Rule as the data show it: active = GI50 up to about 1.1 µM and inactive = higher.

Assays:
Test in all cases: NCI anticancer screen, dose series, 48 h
BT-549 = tested on: BT-549
DMS-114 = tested on: DMS-114
DMS-273 = tested on: DMS-273
HOP-18 = tested on: HOP-18
KM-20L2 = tested on: KM-20L2
LXFL 529 = tested on: LXFL 529
SNB-78 = tested on: SNB-78
XF498 = tested on: XF498
RXF 631 = tested on: RXF 631

O=C(O)COc1ccc(C(=O)/C(SS/C(C(=O)c2ccc(OCC(=O)O)c(Cl)c2Cl)=C2\C=C(c3ccc(Br)cc3)SS2)=C2/C=C(c3ccc(Br)cc3)SS2)c(Cl)c1Cl
GI50 (BT-549): 8.13 µM (inactive) | GI50 (DMS-114): 1.05 µM (active) | GI50 (DMS-273): 23.8 µM (inactive) | GI50 (HOP-18): 5.48 µM (inactive) | GI50 (KM-20L2): 39.6 µM (inactive) | GI50 (LXFL 529): 1.29 µM (inactive) | GI50 (SNB-78): 4.57 µM (inactive) | GI50 (XF498): 3.19 µM (inactive)

COc1cc([N+](=O)[O-])ccc1NC1=CC(=O)CCC1
GI50 (BT-549): > 100 µM (inactive)

Cc1cc(C)n(C(=O)C(C)Sc2nnc(SC(C)C(=O)n3nc(C)cc3C)s2)n1 (centres undefined)
GI50 (BT-549): > 100 µM (inactive)

CN1CCN(c2ccc3c(c2)NCC(=O)N3)CC1
GI50 (BT-549): > 100 µM (inactive)

C=C1C(=O)O[C@H]2C/C(C=O)=C\[C@H]3O[C@H]3/C(COC(=O)C(C)C)=C/CC12 (some centres undefined)
GI50 (BT-549): 12.2 µM (inactive)

CC(C)(O)[C@H](CCO)O[Si](c1ccccc1)(c1ccccc1)C(C)(C)C
GI50 (DMS-273): 10.1 µM (inactive) | GI50 (HOP-18): 3.1 µM (inactive) | GI50 (KM-20L2): 11.2 µM (inactive) | GI50 (LXFL 529): 11.6 µM (inactive) | GI50 (SNB-78): 15 µM (inactive) | GI50 (XF498): 8.18 µM (inactive)

NNc1nnc(-c2ccccc2)nc1Cc1ccccc1
GI50 (DMS-114): 3.17 µM (inactive) | GI50 (DMS-273): 7.26 µM (inactive) | GI50 (HOP-18): 2.03 µM (inactive) | GI50 (KM-20L2): 3.84 µM (inactive) | GI50 (LXFL 529): 3.85 µM (inactive) | GI50 (XF498): 7.41 µM (inactive)

C=C1CC(C)(COc2ccc3ccc(=O)oc3c2)OC1=O (centres undefined)
GI50 (BT-549): 1.02 µM (active)

O=c1c2ccccc2nc(-c2ccccc2)n1NC(=S)Nc1ccccc1
GI50 (DMS-114): 14.3 µM (inactive) | GI50 (DMS-273): > 100 µM (inactive) | GI50 (HOP-18): > 100 µM (inactive) | GI50 (LXFL 529): 81.8 µM (inactive)

COc1cc2c(cc1OC)C1C(O)C(OC)C(Br)C3(Br)CCN(C2)C13 (centres undefined)
GI50 (BT-549): > 100 µM (inactive)

CC(=O)O[C@H]1CC[C@H]2[C@@H]3CCC4=C/C(=N/OCCN(C)C)CC[C@]4(C)[C@H]3CC[C@]12C
GI50 (BT-549): 12.8 µM (inactive)

Cn1c(=O)n(C2(C)C[Se]C2)c2ccccc21
GI50 (DMS-273): > 100 µM (inactive) | GI50 (KM-20L2): > 100 µM (inactive) | GI50 (LXFL 529): > 100 µM (inactive) | GI50 (SNB-78): > 100 µM (inactive)

CC(C)CC(C(N)=O)C(=O)NC(Cc1ccccc1)NC(=O)CNC(=O)C(C)NC(=O)C(N)Cc1ccc(O)cc1 (centres undefined)
GI50 (BT-549): > 100 µM (inactive)

O=C1CCc2ccc3c(c21)CC1(Cc2ccccc2C1)C3
GI50 (BT-549): 10 µM (inactive)

O=S(=O)(Cc1nc2ccccc2s1)c1nc2ccccc2s1
GI50 (BT-549): 16.5 µM (inactive)

Cc1cc2oc(-c3ccccc3)c(C)c(=O)c2c2c1OC(C)(C)S2
GI50 (DMS-114): 83.9 µM (inactive) | GI50 (DMS-273): 71.9 µM (inactive) | GI50 (HOP-18): > 100 µM (inactive) | GI50 (KM-20L2): 55.5 µM (inactive) | GI50 (LXFL 529): > 100 µM (inactive) | GI50 (RXF 631): > 100 µM (inactive) | GI50 (XF498): > 100 µM (inactive)

COc1ccc(Nc2nc(C#N)c(N)s2)cc1
GI50 (DMS-273): 26.7 µM (inactive) | GI50 (KM-20L2): 38.5 µM (inactive) | GI50 (LXFL 529): 31.9 µM (inactive) | GI50 (RXF 631): 35.9 µM (inactive) | GI50 (SNB-78): > 100 µM (inactive) | GI50 (XF498): 21.4 µM (inactive)

C=C1C(=O)O[C@@]23C1CC[C@@H](C)C2CC[C@@]1(C)OC31 (some centres undefined)
GI50 (BT-549): 7.71 µM (inactive)

Cc1cc(N(CCC#N)CCC#N)ccc1C(/N=N/c1ccc(Cl)cc1)=N\NC(=O)c1ccccc1
GI50 (BT-549): 25.6 µM (inactive)

CCOC(=O)C1C(=O)C=C(c2cc(C)ccc2O)CC1c1cccc(Cl)c1 (centres undefined)
GI50 (BT-549): 44.6 µM (inactive)

COc1ccc2ccccc2c1/C=C/C(=O)c1ccccc1
GI50 (BT-549): 2.96 µM (inactive)

CC(C)(C)Sc1nnc(SC(C)(C)C)c2c(SC(C)(C)C)nnc(O)c12
GI50 (DMS-114): 4.31 µM (inactive) | GI50 (DMS-273): 7.8 µM (inactive) | GI50 (KM-20L2): 10.4 µM (inactive) | GI50 (LXFL 529): 10.6 µM (inactive) | GI50 (RXF 631): 3.2 µM (inactive) | GI50 (SNB-78): 12.2 µM (inactive) | GI50 (XF498): 15.3 µM (inactive)

C=C1C(=O)O[C@H]2C1C[C@H](O)[C@@]1(C)OC1CC[C@@]1(C)O[C@H]21 (some centres undefined)
GI50 (BT-549): 13.8 µM (inactive)

O=C1CC(Sc2nc3ccc(I)cc3c(=O)n2Cc2ccccc2)C(=O)NN1 (centres undefined)
GI50 (BT-549): 15.7 µM (inactive)

N#C/C(=C\c1cc(F)cc(F)c1)c1ccccn1
GI50 (BT-549): 30.1 µM (inactive)

OC12c3ccccc3C1CCCCCCCCCC21OCCO1 (centres undefined)
GI50 (DMS-114): > 100 µM (inactive) | GI50 (DMS-273): > 100 µM (inactive) | GI50 (HOP-18): > 100 µM (inactive) | GI50 (KM-20L2): > 100 µM (inactive) | GI50 (LXFL 529): > 100 µM (inactive) | GI50 (SNB-78): > 100 µM (inactive)

Nc1nc(N)c2ncn(CC(CO)CC(c3ccccc3)P(=O)(O)O)c2n1 (centres undefined)
GI50 (DMS-114): > 100 µM (inactive) | GI50 (DMS-273): > 100 µM (inactive) | GI50 (HOP-18): > 100 µM (inactive) | GI50 (KM-20L2): > 100 µM (inactive) | GI50 (SNB-78): > 100 µM (inactive) | GI50 (XF498): > 100 µM (inactive)

CCOC(=O)C(C(=O)OCC)P(=S)(S)c1ccccc1 (centres undefined)
GI50 (DMS-114): > 100 µM (inactive) | GI50 (DMS-273): > 100 µM (inactive) | GI50 (KM-20L2): > 100 µM (inactive) | GI50 (LXFL 529): > 100 µM (inactive) | GI50 (RXF 631): > 100 µM (inactive) | GI50 (XF498): > 100 µM (inactive)

CC(=O)OCC1OC(NC(=O)N(CCCl)N=O)C(OC(C)=O)C(OC(C)=O)C1OC(C)=O (centres undefined)
GI50 (DMS-114): > 100 µM (inactive) | GI50 (DMS-273): > 100 µM (inactive) | GI50 (HOP-18): > 100 µM (inactive) | GI50 (KM-20L2): > 100 µM (inactive) | GI50 (SNB-78): > 100 µM (inactive) | GI50 (XF498): 75.9 µM (inactive)

NS(=O)(=O)c1ccc(-n2c(-c3cccs3)nc3ccc(I)cc3c2=O)cc1
GI50 (BT-549): 16.3 µM (inactive)

COc1cc2ccccc2c2cc([N+](=O)[O-])oc12
GI50 (BT-549): 1.64 µM (inactive)

O=C1c2cccnc2-c2nccc3c2c1nc1ccccc13 [ASCIDIDEMIN]
GI50 (BT-549): 0.169 µM (active)

Nc1ccccc1NC(=O)c1ccc(CNC(=O)OCc2cccnc2)cc1 [ENTINOSTAT]
GI50 (BT-549): 3.5 µM (inactive)

CC1CC(C)(O)CC(C(O)CC2CC(=O)NC(=O)C2)C1=O (centres undefined) [RESACTIN A]
GI50 (BT-549): 0.113 µM (active)
